The record followed here is patent publication US9718790B2, “Triazine derivative and pharmaceutical composition having an analgesic activity comprising the same” (SHIONOGI & CO., LTD., priority 2010, dated 2017).

Structures are written as SMILES.

The IC50 is the concentration at which inhibition is half-maximal.

In the first test the target is human P2X3 receptor (Homo sapiens (Human), UniProt P56373). The test is described as follows: Evaluation of human P2X3 receptor inhibitory activity (Fluo-3 calcium fluorescence, FDSS 3000, ATP stimulation).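 Also: stimulus was 50 nM ATP with fluorescence followed for 3 min, and the response per well was peak post-ATP fluorescence divided by the reading at measurement start.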 It is filed as cell-based. The note with it: C6BU-1 cells stably expressing human P2X3 receptor.
human P2X3 receptor, sequence (P56373 whole entry): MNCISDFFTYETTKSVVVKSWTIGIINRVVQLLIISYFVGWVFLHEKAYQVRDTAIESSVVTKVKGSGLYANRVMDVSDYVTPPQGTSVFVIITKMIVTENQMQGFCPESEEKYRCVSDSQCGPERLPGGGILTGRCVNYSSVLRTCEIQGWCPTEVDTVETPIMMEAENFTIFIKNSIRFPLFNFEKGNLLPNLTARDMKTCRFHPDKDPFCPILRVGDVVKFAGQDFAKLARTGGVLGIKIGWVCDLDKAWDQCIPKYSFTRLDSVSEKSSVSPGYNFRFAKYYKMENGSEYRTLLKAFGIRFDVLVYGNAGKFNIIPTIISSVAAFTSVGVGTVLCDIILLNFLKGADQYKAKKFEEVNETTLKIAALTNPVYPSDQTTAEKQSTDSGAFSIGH
For the compound `Cc1cc(/N=c2\[nH]c(=O)n(C[C@H](C)C(=O)O)c(=O)n2Cc2ccccc2)ccc1OC(C)C` [Compound I-0795], the IC50 came out at 724 nM. With `Cc1ccc(Cn2c(=O)n([C@@H](C)[C@@H](C)C(=O)O)c(=O)[nH]/c2=N\c2ccc3nc(C)ccc3c2)cc1` [Compound I-1352], the IC50 was determined as 26 nM.

As to `CCOC(=O)CCn1c(=O)[nH]/c(=N\c2ccc(OC3CCC3)c(C)c2)n(Cc2ccc(Cl)cc2)c1=O` [Compound I-1401], the IC50 was determined as 22 nM.

Turning to `CCn1c(=O)[nH]/c(=N\c2ccc(Oc3ccc(C(=O)O)nc3)cc2)n(Cc2ccc(C)cc2)c1=O` [Compound I-2116], the IC50 was found to be 15 nM. Still for that read-out and setting: next, `CC(C)COc1ccc(/N=c2\[nH]c(=O)n([C@@H](C)[C@@H](C)C(=O)O)c(=O)n2Cc2ccc(Cl)cc2)cc1` [Compound I-1386]: 28 nM; `CC(C)Oc1ccc(/N=c2\[nH]c(=O)n(Cc3nnn[nH]3)c(=O)n2Cc2ccc(Cl)cc2)cc1F` [Compound I-1297]: 26 nM; `CCn1c(=O)[nH]/c(=N\c2ccc(Oc3cncc(C(=O)OC)c3)cc2)n(Cc2ccc(F)cc2)c1=O` [Compound I-2111]: 44 nM. Still for that read-out and setting: for `CC(C)Oc1ccc(/N=c2\[nH]c(=O)n(CCc3ncn[nH]3)c(=O)n2Cc2ccc(Cl)cc2)cc1F` [Compound I-0672, 1-(4-chlorobenzyl)-6-(3-fluoro-4-isopropoxyphenylimino)-3-[2-(1,2,4-triazol-5-yl)ethyl]-1,3,5-triazinane-2,4-dion] the value was 8 nM. `Cc1ccc(Cn2c(=O)n(CCCC(=O)O)c(=O)[nH]/c2=N\c2ccc(Oc3ccc(C)nc3)cc2)cc1` [Compound I-1395]: the IC50 was determined as 23 nM. Same read-out and setting: next, `C[C@@H](Cn1c(=O)[nH]/c(=N\c2cnc(OC3CCC3)c(Cl)c2)n(Cc2ccc(Cl)cc2)c1=O)C(=O)O` [Compound I-1411]: 58 nM. As to `CCOC(=O)C1(COc2ccc(/N=c3\[nH]c(=O)n(CC)c(=O)n3Cc3ccc(Cl)cc3)cc2)CC1` [Compound I-2014], the IC50 worked out at 360 nM.

In the case of `COC(=O)[C@@H](C)Cn1c(=O)[nH]/c(=N\c2ccc(OCCO)cc2)n(Cc2ccc(Cl)cc2)c1=O` [Compound I-0719], the IC50 is 115 nM. Consider `Cc1cc(/N=c2\[nH]c(=O)n(C[C@H]3COC(C)(C)O3)c(=O)n2Cc2ccc(Cl)cc2)ccc1OC(C)C` [Compound I-0709], for which the half-inhibitory concentration (IC50) is 7 nM.

On to `Cc1ccc(Cn2c(=O)n(CCC(=O)O)c(=O)[nH]/c2=N\c2ccc(OC3CCC3)c(Cl)c2)cc1` [Compound I-1332], for which the IC50 amounted to 54 nM. On the same count and under the same terms, next, `CC(C)Cc1ccc(/N=c2\[nH]c(=O)n(C[C@H](C)C(=O)O)c(=O)n2Cc2ccc(Cl)cc2)cc1F` [Compound I-1257]: 9 nM; `COC(=O)[C@H](C)[C@H](C)n1c(=O)[nH]/c(=N\c2ccc(N3CCCCC3)cc2)n(Cc2ccc(C)cc2)c1=O` [Compound I-1381]: 20 nM.

Consider `CC(C)Oc1ccc(/N=c2\[nH]c(=O)n(CCCNC(=N)N)c(=O)n2Cc2ccc(Cl)cc2)cc1F` [Compound I-0634], for which the IC50 is 11 nM. On to `Cc1ccc(Cn2c(=O)n(CC(C)(C)C(=O)O)c(=O)[nH]/c2=N\c2cccc(C(F)(F)F)c2)cc1` [Compound I-1271], for which the IC50 came to 32 nM. Still for that read-out and setting: for `CCOC(=O)CCn1c(=O)[nH]/c(=N\c2ccc3nc(C)sc3c2)n(CC2CCC(C)CC2)c1=O` (stereo not drawn) [Compound I-1990] the value was 2 nM; for `COC(=O)[C@@H](C)Cn1c(=O)[nH]/c(=N\c2cnc(OC3CCC3)c(Cl)c2)n(Cc2ccc(Cl)cc2)c1=O` [Compound I-1399], 50 nM; for `CCOC(=O)CCCn1c(=O)[nH]/c(=N\c2ccc(Oc3ccc(C)nc3)cc2)n(Cc2ccc(C)cc2)c1=O` [Compound I-1369], 3 nM.

The same test, now with this note: C6BU-1 cells stably expressing human P2X3 receptor, Fluo-3 fluorescence, FDSS 3000.
On to `CCCc1nc2ccc(/N=c3\[nH]c(=O)n([C@@H](C)[C@@H](C)C(=O)O)c(=O)n3Cc3ccc(Cl)cc3)cc2s1` [Compound I-1792], for which the 50% inhibitory concentration (IC50) is 20 nM. With `C[C@@H](Oc1ccc(/N=c2\[nH]c(=O)n(C[C@H](O)CO)c(=O)n2Cc2ccc(Cl)cc2)cc1)C(F)(F)F` [Compound I-1845], the IC50 was 33 nM.

Turning to `C[C@@H](C(=O)O)[C@H](C)n1c(=O)[nH]/c(=N\c2ccc3c(c2)nc(-c2ccccc2)n3C)n(Cc2ccc(Cl)cc2)c1=O` [Compound I-1812], the IC50 is 630 nM. In the case of `CC(C)c1nc2ccc(/N=c3\[nH]c(=O)n([C@@H](C)[C@@H](C)C(=O)O)c(=O)n3Cc3ccc(Cl)cc3)cc2s1` [Compound I-1585], the IC50 was 14 nM. Take `CCc1nc2ccc(/N=c3\[nH]c(=O)n(CCC(=O)NCCO)c(=O)n3Cc3ccc(Cl)cc3)cc2s1` [Compound I-1739]: the IC50 is 7 nM. In the case of `Cc1cc2cc(/N=c3\[nH]c(=O)n([C@@H](C)[C@@H](C)C(=O)O)c(=O)n3Cc3ccc(Cl)cc3)cc(Cl)c2o1` [Compound I-1588], the IC50 stood at 67 nM. For the compound `O=C(O)CCn1c(=O)[nH]/c(=N\c2ccc(OCc3ccccn3)cc2)n(Cc2ccc(Cl)cc2)c1=O` [Compound I-1628], the concentration for half-maximal inhibition (IC50) amounted to 683 nM. Take `CCc1nc2ccc(/N=c3\[nH]c(=O)n(CC(C)(C)C(=O)O)c(=O)n3Cc3ccc(C)cc3)cc2s1` [Compound I-1580]: the 50% inhibitory concentration (IC50) was determined as 6 nM. Still for that read-out and setting: next, `Cc1ccc(Cn2c(=O)n(C[C@H](C)C(=O)O)c(=O)[nH]/c2=N\c2ccc(OC(C)C)c(OC(C)C)c2)cc1` [Compound I-1136]: 204 nM; `COc1ccc2cc(/N=c3\[nH]c(=O)n([C@@H](C)[C@@H](C)C(=O)O)c(=O)n3Cc3ccc(Cl)cc3)ccc2n1` [Compound I-1587]: 38 nM. With `C#Cc1ccc(Cn2c(=O)n(C[C@H](C)C(=O)O)c(=O)[nH]/c2=N\c2ccc(OC(C)C)c(C)c2)cc1` [Compound I-0946], the IC50 was found to be 239 nM. The same measure, in the same setting: next, `C/C=C\c1ccc(Cn2c(=O)n(C[C@H](C)C(=O)OC)c(=O)[nH]/c2=N\c2ccc(OC(C)C)cc2)cc1` [Compound I-1142]: 802 nM; `COC(=O)[C@@H](C)Cn1c(=O)nc(Cc2ccc(OC)c(F)c2)n(Cc2ccc(Cl)cc2)c1=O` [Compound I-1869]: 328 nM. On the same count and under the same terms, for `CCCCCOc1ccc(/N=c2\[nH]c(=O)n(C[C@H](C)C(=O)OC)c(=O)n2Cc2ccc(C)cc2)cc1` [Compound I-1057] the value was 89 nM; for `CSc1cccc(/N=c2\[nH]c(=O)n(C[C@H](C)C(=O)O)c(=O)n2Cc2ccc(Cl)cc2)c1` [Compound I-1152], 110 nM; for `C[C@@H](C(=O)O)[C@H](C)n1c(=O)[nH]/c(=N\c2ccc3c(c2)sc(=O)n3CC(F)(F)F)n(Cc2ccc(Cl)cc2)c1=O` [Compound I-1780], 932 nM.

The test is the same for the next values; noted with them: human P2X3 receptor, Test Example 1.
On to `CCn1c(=O)[nH]/c(=N\c2ccc(Oc3cccc(CCC(=O)OC)c3)cc2)n(Cc2ccc(Cl)cc2)c1=O` [Compound I-2225], for which the concentration for half-maximal inhibition (IC50) was 61 nM.

Consider `Cc1ccc(Cn2c(=O)n(CC3(C(=O)O)CC3)c(=O)[nH]/c2=N\c2ccc3nc(C)sc3c2)cc1` [Compound I-1554], for which the IC50 turned out to be 14 nM.

As for `COc1ccc(Oc2ccc(/N=c3\[nH]c(=O)n(C[C@H](C)C(=O)O)c(=O)n3Cc3ccc(C)cc3)cc2)cn1` [Compound I-1534], the IC50 is 5 nM.

As to `CCn1c(=O)[nH]/c(=N\c2ccc(Oc3cccc(C(=O)O)n3)cc2)n(Cc2ncc(Cl)cn2)c1=O` [Compound I-2553], the IC50 is 216 nM. Same read-out and setting: next, `CCn1c(=O)[nH]/c(=N\c2ccc(Oc3cnc(C(=O)O)nc3)cc2)n(Cc2ccc(Cl)cc2)c1=O` [Compound I-2285]: 15 nM; `Cc1ccc(Cn2c(=O)n(C[C@H](C)C(=O)O)c(=O)[nH]/c2=N\c2ccc(CC(C)C)c(Cl)c2)cn1` [Compound I-1485]: 235 nM.

For the compound `Cc1cc(/N=c2\[nH]c(=O)n(C[C@H](O)C(=O)O)c(=O)n2Cc2ccc(Cl)cc2)ccc1OC(C)C` [Compound I-0852, (S)-1-(4-chlorobenzyl)-6-(3-mehyl-4-isopropoxyphenylimino)-3-(2-hydroxycarbonyl-2-hydroxyethyl)-1,3,5-triazinane-2,4-dion], the 50% inhibitory concentration (IC50) was 38 nM. The same measure, in the same setting: next, `O=C(Cn1c(=O)[nH]/c(=N\c2ccc(Oc3cnsn3)cc2)n(Cc2ccc(Cl)cc2)c1=O)NCCO` [Compound I-2677]: 7 nM; `CCn1c(=O)[nH]/c(=N\c2ccc(Oc3nc(C(=O)O)cs3)cc2)n(Cc2ccc(F)cc2)c1=O` [Compound I-2568]: 87 nM.

Regarding `CCOC(=O)CCn1c(=O)[nH]/c(=N\c2ccc(Oc3ncccn3)cc2)n(Cc2ccc(Cl)cc2)c1=O` [Compound I-2550], the half-maximal inhibitory concentration (IC50) is 4 nM. `Cc1nsc(Oc2ccc(/N=c3\[nH]c(=O)n(C[C@@H](O)CO)c(=O)n3Cc3ccc(Cl)cc3)cc2)n1` [Compound I-2577]: the IC50 stood at 8 nM.

In the case of `Cc1nc2ccc(/N=c3\[nH]c(=O)n(CC(CO)CO)c(=O)n3Cc3ccc(Cl)cc3)cc2s1` [Compound I-1544], the IC50 stood at 4 nM. On to `CCc1cc2cc(/N=c3\[nH]c(=O)n(CC(CO)CO)c(=O)n3Cc3ccc(Cl)cc3)ccc2o1` [Compound I-2313], for which the IC50 is 8 nM. As to `O=c1[nH]/c(=N\c2ccc(Oc3ncccc3F)cc2)n(Cc2ccc(Cl)cc2)c(=O)n1CC(CO)CO` [Compound I-2706], the IC50 was determined as 6 nM.

Turning to `CC(C)Oc1ccc(-n2c(NCc3ccc(Cl)cc3)nc(=S)n(C(C)C)c2=O)cc1` [Compound I-2255], the 50% inhibitory concentration (IC50) worked out at 543 nM. As for `COC(=O)c1cccc(Oc2ccc(/N=c3\[nH]c(=O)n(C)c(=O)n3Cc3ccc(Cl)cc3)cc2)n1` [Compound I-2271], the half-inhibitory concentration (IC50) came out at 36 nM. `Cn1c(=O)[nH]/c(=N\c2ccc(Oc3cccc(C#N)n3)c(F)c2)n(Cc2ccc(Cl)cc2)c1=O` [Compound I-2493]: the half-maximal inhibitory concentration (IC50) worked out at 5 nM. Consider `CC(CO)(CO)Cn1c(=O)[nH]/c(=N\c2ccc(Oc3ccon3)cc2)n(Cc2ccc(F)cc2)c1=O` [Compound I-2399], for which the half-inhibitory concentration (IC50) turned out to be 20 nM. `Cc1nc2ccc(/N=c3\[nH]c(=O)n(CCC(=O)O)c(=O)n3Cc3ccc(Cl)cc3)cc2s1` [Compound I-1520]: the IC50 stood at 32 nM. Still for that read-out and setting: next, `CCc1oc2ccc(/N=c3\[nH]c(=O)n(CC4(C(=O)O)CC4)c(=O)n3Cc3ccc(Cl)cc3)cc2c1C` [Compound I-1551]: 9 nM.
